Here are results for 17 molecules from ChEMBL document CHEMBL5390221, “Synthesis and biological activity assay of novel camptothecin-peptidic conjugates based on PEPT1” (Bioorg Med Chem Lett, 2023).

A word on the IC50: it is the midpoint of a concentration-inhibition curve. The inhibition is the change of the read-out against control, counted positive when it falls.

The subject of one assay is NCI-H520. The assay is described as follows: Cytotoxicity against human NCI-H520 cells assessed as inhibition of cell growth. The class given is functional, cell-based.
The test system of the next assay is DU-145. The assay is described as follows: Cytotoxicity against human DU-145 cells assessed as inhibition of cell growth. The assay is classed as functional, cell-based.
A short description of assay [1]: Cytotoxicity against human MPC2 cells assessed as inhibition of cell growth. The assay is classed as functional, cell-based.
A further assay deals with HepG2. Kind of assay: Cytotoxicity against human HepG2 cells assessed as inhibition of cell growth. The assay is classed as functional, cell-based.
The next assay has as its system Hep 3B2. The assay is described as follows: Cytotoxicity against human Hep3B cells assessed as inhibition of cell growth. The class given is functional, cell-based.
The subject of another assay is BXPC-3. The assay is described as follows: Cytotoxicity against human BXPC-3 cells assessed as inhibition of cell growth. The assay is classed as functional, cell-based.
Assay [2] deals with T1, Solute carrier family 15 member 1 (Homo sapiens) (UniProt P46059).
T1 sequence (whole entry): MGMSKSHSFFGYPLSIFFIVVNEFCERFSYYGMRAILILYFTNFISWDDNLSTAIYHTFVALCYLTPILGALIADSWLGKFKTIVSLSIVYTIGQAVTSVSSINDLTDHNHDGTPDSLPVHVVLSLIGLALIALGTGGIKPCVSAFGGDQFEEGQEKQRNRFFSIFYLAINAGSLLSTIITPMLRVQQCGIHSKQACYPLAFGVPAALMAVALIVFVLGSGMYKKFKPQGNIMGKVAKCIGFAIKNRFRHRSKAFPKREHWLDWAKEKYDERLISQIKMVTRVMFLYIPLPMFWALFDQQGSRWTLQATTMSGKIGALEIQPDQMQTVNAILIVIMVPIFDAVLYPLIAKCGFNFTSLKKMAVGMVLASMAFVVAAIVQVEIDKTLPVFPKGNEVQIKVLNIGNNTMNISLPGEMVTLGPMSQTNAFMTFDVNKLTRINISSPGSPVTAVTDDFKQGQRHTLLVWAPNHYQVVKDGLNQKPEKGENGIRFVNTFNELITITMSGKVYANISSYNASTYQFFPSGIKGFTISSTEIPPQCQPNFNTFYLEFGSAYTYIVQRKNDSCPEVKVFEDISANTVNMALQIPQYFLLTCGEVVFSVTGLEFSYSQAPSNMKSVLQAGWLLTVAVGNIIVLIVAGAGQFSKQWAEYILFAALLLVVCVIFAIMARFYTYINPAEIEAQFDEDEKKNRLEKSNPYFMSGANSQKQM
Kind of assay: Inhibition of PEPT1 (unknown origin) expressed in HEK293T cells assessed as inhibition of PEPT1 mediated Gly-Sar uptake using Gly-Sar as substrate at 20 uM relative to control. The class given is cell-based.

On to `CC[C@@]1(OC(=O)CNC(=O)[C@H](CCC(N)=O)NC(=O)OC(C)(C)C)C(=O)OCc2c1cc1n(c2=O)Cc2cc3ccccc3nc2-1`, for which the IC50 in the assay with NCI-H520 turned out to be 135 nM; with DU-145, 144 nM; in assay [1] it was 387 nM; in the assay with HepG2 it was 144 nM; in the assay with Hep 3B2, 999 nM; with BXPC-3 it was 121 nM. In assay [2], the inhibition is over 50%.

On to `CC[C@@]1(OC(=O)CNC(=O)[C@H](CC(N)=O)NC(=O)OC(C)(C)C)C(=O)OCc2c1cc1n(c2=O)Cc2cc3ccccc3nc2-1`, for which the IC50 in the assay on NCI-H520 worked out at 58 nM; with DU-145, 89.9 nM; in assay [1] it was 260 nM; with HepG2, 88.6 nM; with Hep 3B2 it was 784 nM; in the assay with BXPC-3, 84.2 nM. Further, the inhibition in assay [2] is over 50%.

With `CC[C@H](C)[C@H](NC(C)=O)C(=O)NCC(=O)O[C@]1(CC)C(=O)OCc2c1cc1n(c2=O)Cc2cc3ccccc3nc2-1`, the IC50 was 109 nM in the assay on NCI-H520; 94.4 nM with DU-145; 197 nM in assay [1]; 70.4 nM in the assay on HepG2; 847 nM in the assay on Hep 3B2; 153 nM with BXPC-3.

With `CC[C@@]1(OC(=O)CNC(=O)[C@@H](NC(C)=O)C(C)C)C(=O)OCc2c1cc1n(c2=O)Cc2cc3ccccc3nc2-1`, the IC50 amounted to 125 nM with NCI-H520; 87 nM in the assay on DU-145; 209 nM in assay [1]; 150 nM with HepG2; 914 nM in the assay with Hep 3B2; 54.8 nM with BXPC-3. For the same molecule, the inhibition in assay [2] was over 50%.

With `CCCC(=O)NCC(=O)O[C@]1(CC)C(=O)OCc2c1cc1n(c2=O)Cc2cc3ccccc3nc2-1`, the IC50 in the assay with NCI-H520 came to 153 nM; with DU-145, 55 nM; in assay [1], 106 nM; in the assay with HepG2, 91.8 nM; in the assay on Hep 3B2, 1510 nM; in the assay on BXPC-3, 157 nM. Further, the inhibition in assay [2] was over 50%.

Take `CC[C@@]1(OC(=O)CNC(=O)[C@H](Cc2ccccc2)NC(=O)OC(C)(C)C)C(=O)OCc2c1cc1n(c2=O)Cc2cc3ccccc3nc2-1`: the IC50 turned out to be 54.9 nM with NCI-H520; 74.3 nM in the assay with DU-145; 206 nM in assay [1]; 74.7 nM with HepG2; 1120 nM in the assay with Hep 3B2; 97.7 nM in the assay with BXPC-3.

Consider `CC[C@@]1(OC(=O)CNC(=O)[C@@H](NC(=O)OC(C)(C)C)C(C)C)C(=O)OCc2c1cc1n(c2=O)Cc2cc3ccccc3nc2-1`, for which the IC50 with NCI-H520 was found to be 78.5 nM; with DU-145 it was 78.8 nM; in assay [1] it was 204 nM; with HepG2 it was 197 nM; in the assay with Hep 3B2, 872 nM; in the assay on BXPC-3 it was 143 nM.

Regarding `CC[C@@]1(OC(=O)CNC(=O)C(C)C)C(=O)OCc2c1cc1n(c2=O)Cc2cc3ccccc3nc2-1`, the IC50 in the assay with NCI-H520 was found to be 87.2 nM; with DU-145 it was 55.4 nM; in assay [1] it was 97.1 nM; with HepG2, 129 nM; in the assay with Hep 3B2, 969 nM; in the assay on BXPC-3, 167 nM.

On to `CC[C@@]1(OC(=O)CNC(=O)[C@H](C)NC(=O)OC(C)(C)C)C(=O)OCc2c1cc1n(c2=O)Cc2cc3ccccc3nc2-1`, for which the IC50 in the assay with NCI-H520 is 67.9 nM; with DU-145, 68.1 nM; in assay [1], 180 nM; with HepG2 it was 114 nM; in the assay with Hep 3B2 it was 850 nM; in the assay on BXPC-3 it was 92.8 nM.

As to `CC[C@H](C)[C@H](NC(=O)OC(C)(C)C)C(=O)NCC(=O)O[C@]1(CC)C(=O)OCc2c1cc1n(c2=O)Cc2cc3ccccc3nc2-1`, the IC50 in the assay with NCI-H520 was 58.5 nM; in the assay on DU-145, 97 nM; in assay [1] it was 166 nM; in the assay with HepG2, 176 nM; with Hep 3B2 it was 1770 nM; in the assay on BXPC-3, 222 nM.

In the case of `CC[C@@]1(OC(=O)CNC(=O)[C@H](CC(C)C)NC(=O)OC(C)(C)C)C(=O)OCc2c1cc1n(c2=O)Cc2cc3ccccc3nc2-1`, the IC50 was found to be 34.8 nM in the assay with NCI-H520; 44.6 nM in the assay with DU-145; 125 nM in assay [1]; 87.6 nM in the assay with HepG2; 1060 nM in the assay with Hep 3B2; 162 nM with BXPC-3.

As to `CC[C@@]1(OC(=O)CNC(=O)CNC(C)=O)C(=O)OCc2c1cc1n(c2=O)Cc2cc3ccccc3nc2-1`, the IC50 in the assay on NCI-H520 was 98.6 nM; in the assay with DU-145, 76.1 nM; in assay [1], 153 nM; in the assay with HepG2 it was 59.1 nM; in the assay on Hep 3B2 it was 767 nM; in the assay with BXPC-3, 75.2 nM.

As to `CC[C@@]1(OC(=O)CNC(=O)[C@H](C)NC(C)=O)C(=O)OCc2c1cc1n(c2=O)Cc2cc3ccccc3nc2-1`, the IC50 was determined as 69.3 nM in the assay on NCI-H520; 67.5 nM in the assay on DU-145; 91.4 nM in assay [1]; 88.7 nM in the assay with HepG2; 1010 nM with Hep 3B2; 108 nM in the assay with BXPC-3.

Take `CCCCCC(=O)NCC(=O)O[C@]1(CC)C(=O)OCc2c1cc1n(c2=O)Cc2cc3ccccc3nc2-1`: the IC50 in the assay with NCI-H520 was found to be 162 nM; with DU-145, 46.1 nM; in assay [1], 79.4 nM; in the assay on HepG2 it was 114 nM; in the assay with Hep 3B2, 1530 nM; with BXPC-3, 105 nM.

As to `CC[C@@]1(O)C(=O)OCc2c1cc1n(c2=O)Cc2cc3ccccc3nc2-1` [CAMPTOTHECIN], the IC50 in the assay on NCI-H520 was 25 nM; with DU-145, 33.5 nM; in assay [1], 83.7 nM; with HepG2 it was 33.2 nM; in the assay on Hep 3B2, 434 nM; in the assay on BXPC-3, 62.5 nM.

For the molecule `CC[C@@]1(OC(=O)CNC(=O)[C@H](Cc2ccccc2)NC(C)=O)C(=O)OCc2c1cc1n(c2=O)Cc2cc3ccccc3nc2-1`, the IC50 with NCI-H520 is 56.9 nM; with DU-145, 51.7 nM; in assay [1], 102 nM; in the assay with HepG2, 60.4 nM; in the assay on Hep 3B2, 973 nM; in the assay with BXPC-3, 89.5 nM. Besides, in assay [2], the inhibition is over 50%.

On to `CCC(=O)NCC(=O)O[C@]1(CC)C(=O)OCc2c1cc1n(c2=O)Cc2cc3ccccc3nc2-1`, for which the IC50 in the assay on NCI-H520 came out at 166 nM; in the assay with DU-145 it was 52.8 nM; in assay [1], 155 nM; with HepG2 it was 109 nM; in the assay with Hep 3B2, 1010 nM; in the assay on BXPC-3, 123 nM. Besides, the inhibition in assay [2] was over 50%.
